The results in this text go back to ChEMBL document CHEMBL1201862, “PubChem BioAssay data set” (2004).

Among the test systems are MCF7; NCI-H460; UACC-257; SK-OV-3; CCRF-CEM; SNB-19; OVCAR-5; SK-MEL-28; 786-0; OVCAR-4; SF-268; CAKI-1; RPMI-8226; SF-295; MOLT-4; M14; MDA-MB-435; Malme-3M.
Holding throughout (experiment): DTP human tumour cell line panel, 48 h

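Method: 48-hour compound exposure of cells in 96-well plates, five concentrations, linear interpolation of endpoints. Here, GI50 denotes the concentration required for 50% inhibition of growth.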 Calls of active or inactive are those of the source. Cut-off read from the data, not from the text of the source: active = GI50 up to about 1.1 µM and inactive = higher.

The term GI50 denotes the concentration that inhibits growth by half.

For `CN(C)S(=O)(=O)/N=C/c1cccc(/C=N/S(=O)(=O)N(C)C)c1`, the GI50 in the experiment on MCF7 is 46.7 µM (inactive); in the experiment with NCI-H460 it was > 100 µM (inactive); in the experiment on UACC-257, > 100 µM (inactive); in the experiment on SK-OV-3 it was > 100 µM (inactive); in the experiment on CCRF-CEM, 74.8 µM (inactive); with SNB-19, > 100 µM (inactive). Also, the GI50 with OVCAR-5 is > 100 µM (inactive); with SK-MEL-28, > 100 µM (inactive); in the experiment with 786-0, > 100 µM (inactive); in the experiment on OVCAR-4, > 100 µM (inactive); in the experiment with SF-268, 61.5 µM (inactive); with CAKI-1, > 100 µM (inactive). The GI50 in the experiment on RPMI-8226 was 63.1 µM (inactive); in the experiment on SF-295, 0.728 µM (active); with MOLT-4 it was > 100 µM (inactive); in the experiment on M14 it was > 100 µM (inactive); in the experiment on MDA-MB-435, 44.8 µM (inactive).
On to `CC(NC(=O)c1ccc(OP(=O)(OCc2ccc([N+](=O)[O-])o2)N(C)CCCCCl)cc1)c1ccc(OCC2CCCCC2)c(C(N)=O)c1` (stereo not given), for which the GI50 with MCF7 is 2.77 µM (inactive); in the experiment with NCI-H460 it was 3.27 µM (inactive); in the experiment on UACC-257 it was 3.87 µM (inactive); in the experiment with SK-OV-3 it was > 33.1 µM (inactive); in the experiment with SNB-19, 16.4 µM (inactive); in the experiment with OVCAR-5, 15.2 µM (inactive). Moreover, the GI50 was 2.3 µM (inactive) in the experiment on SK-MEL-28; 4.32 µM (inactive) with 786-0; 2.35 µM (inactive) in the experiment on OVCAR-4; 2.67 µM (inactive) with SF-268; 12.4 µM (inactive) in the experiment with CAKI-1; 2.52 µM (inactive) with Malme-3M. The GI50 in the experiment with RPMI-8226 is 1.03 µM (active); in the experiment on SF-295, 9.51 µM (inactive); with MOLT-4 it was 1.38 µM (inactive); with M14, 3.67 µM (inactive); in the experiment with MDA-MB-435 it was 2.38 µM (inactive).
Take `Cn1nc(S(N)(=O)=O)s/c1=N/S(=O)(=O)c1ccc(N)cc1`: the GI50 with NCI-H460, in the experiment on SK-OV-3, in the experiment with SNB-19, with OVCAR-5, in the experiment on SK-MEL-28 and with 786-0 was > 100 µM (inactive) each time. Further, the GI50 in the experiment on OVCAR-4, with SF-268, with CAKI-1, in the experiment on Malme-3M, in the experiment on RPMI-8226 and with SF-295 was > 100 µM (inactive) each time. Besides, the GI50 in the experiment with MOLT-4 and with M14 was > 100 µM (inactive) throughout.
As for `O=C(O)CN(c1ccc(Cl)cc1)S(=O)(=O)c1ccccc1`, the GI50 in the experiment on NCI-H460, in the experiment with UACC-257, in the experiment on SK-OV-3, in the experiment with CCRF-CEM, in the experiment on SNB-19 and in the experiment on OVCAR-5 was > 100 µM (inactive) each time. Also, the GI50 in the experiment on SK-MEL-28, in the experiment on 786-0, in the experiment on OVCAR-4, in the experiment with SF-268, in the experiment with CAKI-1 and with Malme-3M was > 100 µM (inactive) in each case. The GI50 in the experiment on RPMI-8226, with SF-295, in the experiment on MOLT-4 and in the experiment with M14 was > 100 µM (inactive) in each case.
As to `CC1=C(C(=O)Nc2ccc([N+](=O)[O-])cc2)C(c2ccc(N(C)C)cc2)C(C(=O)Nc2ccc([N+](=O)[O-])cc2)=C(C)N1`, the GI50 with NCI-H460 was 17.4 µM (inactive); with UACC-257 it was 16.4 µM (inactive); with SK-OV-3 it was 23.4 µM (inactive); in the experiment with CCRF-CEM it was 17.8 µM (inactive); in the experiment with SNB-19, 36.4 µM (inactive); with OVCAR-5, 23.2 µM (inactive). The GI50 in the experiment with SK-MEL-28 was 13.5 µM (inactive); in the experiment on 786-0, 23.3 µM (inactive); with OVCAR-4, 21.1 µM (inactive); in the experiment on SF-268, 23.8 µM (inactive); with CAKI-1 it was 31.8 µM (inactive); with Malme-3M, 23.3 µM (inactive). The GI50 is 12.2 µM (inactive) in the experiment with RPMI-8226, 27.5 µM (inactive) in the experiment with SF-295, 9.14 µM (inactive) in the experiment with MOLT-4 and 16.9 µM (inactive) in the experiment on M14.
Consider `COc1ccc(C(O)c2nccn2C)c(OC)c1` (stereo not given), for which the GI50 is > 100 µM (inactive) in the experiment on MCF7; > 100 µM (inactive) in the experiment with NCI-H460; > 100 µM (inactive) in the experiment on UACC-257; 17.4 µM (inactive) in the experiment on SK-OV-3; > 100 µM (inactive) in the experiment on CCRF-CEM; > 100 µM (inactive) with SNB-19. Moreover, the GI50 with OVCAR-5, in the experiment on SK-MEL-28, in the experiment with 786-0, in the experiment with OVCAR-4, in the experiment on SF-268 and in the experiment with CAKI-1 was > 100 µM (inactive) in each case. For the same molecule, the GI50 in the experiment on Malme-3M, in the experiment with RPMI-8226, with SF-295, with MOLT-4 and in the experiment with M14 was > 100 µM (inactive) each time.
`O=C1CCC2SC1CCC2=O`: the GI50 with MCF7, in the experiment with NCI-H460, in the experiment on UACC-257, in the experiment on SK-OV-3, with CCRF-CEM and in the experiment on SNB-19 was > 100 µM (inactive) in each case. The GI50 in the experiment with OVCAR-5, with SK-MEL-28, with 786-0, with OVCAR-4, in the experiment with SF-268 and with CAKI-1 was > 100 µM (inactive) in each case. Also, the GI50 with Malme-3M, in the experiment with SF-295, in the experiment on MOLT-4, in the experiment on M14 and in the experiment on MDA-MB-435 was > 100 µM (inactive) in each case.
In the case of `O=c1cc(CSc2c(-c3ccccc3)c(=O)n(-c3ccccc3)c(=S)n2-c2ccccc2)[nH]c(=O)[nH]1`, the GI50 in the experiment with MCF7, in the experiment with NCI-H460, in the experiment on UACC-257, with SK-OV-3, with CCRF-CEM and with SNB-19 was > 100 µM (inactive) each time. In addition, the GI50 with OVCAR-5, in the experiment with SK-MEL-28, with 786-0, in the experiment with SF-268, in the experiment on CAKI-1 and in the experiment with RPMI-8226 was > 100 µM (inactive) in each case. In addition, the GI50 in the experiment with MOLT-4, in the experiment with M14 and in the experiment on MDA-MB-435 was > 100 µM (inactive) throughout.
For the molecule `CCC(O)c1ccc(/N=C/c2ccccc2O)cc1` (stereo not given), the GI50 with MCF7, in the experiment with NCI-H460, in the experiment on SK-OV-3, in the experiment with SNB-19, in the experiment with OVCAR-5 and with SK-MEL-28 was > 100 µM (inactive) in each case. In addition, the GI50 with 786-0, in the experiment with OVCAR-4, in the experiment on SF-268, in the experiment on CAKI-1, in the experiment on Malme-3M and in the experiment on RPMI-8226 was > 100 µM (inactive) each time. The GI50 in the experiment on SF-295, with MOLT-4, in the experiment with M14 and in the experiment on MDA-MB-435 was > 100 µM (inactive) each time.
For the molecule `COC(=O)c1ccc(Cc2ccc(C(=O)OC)o2)o1`, the GI50 with NCI-H460 is > 378 µM (inactive); with UACC-257, > 378 µM (inactive); in the experiment with SK-OV-3, > 378 µM (inactive); in the experiment with CCRF-CEM it was > 378 µM (inactive); in the experiment with SNB-19, 327 µM (inactive); with OVCAR-5 it was > 378 µM (inactive). The GI50 with SK-MEL-28, in the experiment with 786-0, in the experiment with SF-268, in the experiment on CAKI-1, in the experiment with Malme-3M and in the experiment with RPMI-8226 was > 378 µM (inactive) in each case. The GI50 with SF-295 and with MOLT-4 was > 378 µM (inactive) each time.
For the molecule `COc1ccc2nc3n(c2c1)C(c1c(F)cccc1Cl)SC3` (stereo not given), the GI50 in the experiment with MCF7, in the experiment on NCI-H460, in the experiment with UACC-257, in the experiment on SK-OV-3, in the experiment on CCRF-CEM and in the experiment on SNB-19 was > 100 µM (inactive) each time. The GI50 in the experiment with OVCAR-5, in the experiment on SK-MEL-28, with 786-0, with OVCAR-4, in the experiment on CAKI-1 and with RPMI-8226 was > 100 µM (inactive) throughout. The GI50 in the experiment with SF-295, in the experiment on MOLT-4, in the experiment on M14 and with MDA-MB-435 was > 100 µM (inactive) each time.
For `COC(=O)C(=O)C(C(=O)C1=NS(=O)(=O)c2cc(S(N)(=O)=O)c(Cl)cc2N1)c1nc2ccc(C(=O)c3ccccc3)cc2nc1O` (stereo not given), the GI50 with NCI-H460 is > 100 µM (inactive); with UACC-257 it was 71.6 µM (inactive); in the experiment with CCRF-CEM, 75.5 µM (inactive); in the experiment on SNB-19 it was > 100 µM (inactive); in the experiment on OVCAR-5, 58.7 µM (inactive); with SK-MEL-28, > 100 µM (inactive). Also, the GI50 in the experiment on 786-0 is > 100 µM (inactive); in the experiment with OVCAR-4, 81.5 µM (inactive); with SF-268, > 100 µM (inactive); in the experiment on CAKI-1, 57.8 µM (inactive); with Malme-3M it was > 100 µM (inactive); with RPMI-8226 it was > 100 µM (inactive). For the same molecule, the GI50 in the experiment with SF-295 is 72.4 µM (inactive); in the experiment with MOLT-4, 48.6 µM (inactive); with M14, > 100 µM (inactive).
